Converted amounts (≈) assume the structure as drawn. Where two headings read alike, the source gives them in different places. Peptide text beside a SMILES is read from it.
Experiments:
[1] = test system: B. subtilis KCTC 2217; assay type: cell-based, Bacillus subtilis
Description: (§1) We detected the antimicrobial activity of peptides against Gram-negative bacteria (P. aeruginosa ATCC 27853 and A. baumannii KCTC 2508) and Gram-positive bacteria (S. aureus ATCC 25923 and B. subtilis KCTC 2217). The minimum inhibitory concentrations (MICs) of the parental and truncated peptides were determined using the microbroth dilution method, as previously described (Jorgensen [1993]). The bacteria were incubated overnight with shaking at 37 °C. The bacteria were diluted to 2 × 10^5 colony forming units (CFU)/mL in Mueller–Hinton broth (MHB) media. The peptides were serially diluted in 10 mM sodium phosphate buffer and then 50 µL of the bacteria and 50 µL of the peptide solutions were mixed and incubated for 18 h at 37 °C. The MICs were measured as the absorbance at 600 nm using a Versa Max microplate reader (Molecular Devices, Sunnyvale, CA, USA). The samples were analyzed in triplicate.

[2] = test system: A. baumannii KCTC 2508; assay type: cell-based, Acinetobacter baumannii
Description: as §1

[3] = test system: S. aureus ATCC 25923; assay type: cell-based, Staphylococcus aureus; conditions: ATCC 25923, 18 h
Description: as §1

[4] = test system: S. aureus ATCC 25923; assay type: cell-based, Staphylococcus aureus; conditions: ATCC 25923, 18 h; remark: listed apart in the source
Description: as §1
(§2) The effects of various cations on the antimicrobial activity of P5 and the truncated peptides were determined against P. aeruginosa ATCC 27853 and S. aureus ATCC 25923. Bacteria were treated with the peptides in the presence of NaCl (50, 100, and 150 mM), MgCl2 (0.5, 1, and 2 mM), and FeCl3 (1, 4, and 8 µM). The MIC values were the same as those described above.

[5] = test system: P. aeruginosa ATCC 27853; assay type: cell-based, Pseudomonas aeruginosa; conditions: ATCC 27853, 18 h
Description: as §1

[6] = test system: P. aeruginosa ATCC 27853; assay type: cell-based, Pseudomonas aeruginosa; conditions: ATCC 27853, 18 h; remark: listed apart in the source
Description: as §1, §2

[7] = test system: HaCaT cells; experiment: Cytotoxicity, MTT assay; assay type: cell-based, human; conditions: 24 h, 1.56 µM
Description: Human skin epithelial cells (HaCaT cells) were cultured in Dulbecco’s modified Eagle’s medium (DMEM) with 10% fetal bovine serum (FBS) at 37 °C in 5% CO2. Cytotoxicity was determined using the MTT assay (Deng et al. [2015]). HaCaT cells were plated at 2 × 10^4 cells/well in 96-well plates. After overnight incubation, the peptides were added at various concentrations for 24 h, and then 5 mg/mL of MTT was added to each well. After 1 h, the supernatant was removed and 100 μL of DMSO was added to each well to dissolve the formazan crystals. Cytotoxicity was measured at an absorbance of 570 nm using a microplate reader (VersaMax). The cell viability percentage (cell viability rate) was calculated using the following equation (Kim et al. [2018]): Cell viability percentage%=peptide treated sample[…]×100.

[8] = test system: red blood cells (RBCs) from mice; experiment: Hemolytic activity; assay type: cell-based; conditions: mouse RBCs 8% in PBS, peptide 100 µM, 1 h at 37 °C, absorbance 414 nm, 0.1% Triton X-100 positive control
Description: To determine the hemolytic activities of the peptides against red blood cells (RBCs) from mice, RBCs were centrifuged at 2000×g for 5 min and washed with 1 mL of phosphate-buffered saline solution (PBS) three times. The supernatant was removed and the RBCs were diluted to 8% in PBS. After serial dilution, 60 µL of the RBCs and peptides were added to a 96-well plate and incubated at 37 °C for 1 h. The plate was centrifuged at 1500×g for 10 min, 100 µL of the supernatant was transferred to a new plate, and the absorbance was measured at 414 nm (Versa-Max enzyme-linked immunosorbent assay (ELISA) reader). Additionally, 0.1% Triton X-100 and PBS were used as positive and negative controls, respectively. The hemolytic activity percentage (hemolysis rate) was calculated using the following equation (Han et al. [2016]): Hemolysis percentage%=peptide solution-negative control/positive control-PBS×100.

| SMILES | MIC ([1]; KCTC 2217, 18 h) [µM] | MIC ([2]; KCTC 2508, 18 h) [µM] | MIC [3] [µM] | MIC [4] [µM] | MIC [5] [µM] | MIC [6] [µM] | cytotoxicity [7] | MIC ([1]; B. subtilis KCTC 2217, MHB, 2 × 10^5 CFU/mL, 18 h at 37 °C, absorbance 600 nm, triplicate) [µM] | MIC ([2]; A. baumannii KCTC 2508, MHB, 2 × 10^5 CFU/mL, 18 h at 37 °C, absorbance 600 nm, triplicate) [µM] | hemolysis [8] |
| --- | --- | --- | --- | --- | --- | --- | --- | --- | --- | --- |
| CC(C)C[C@H](NC(=O)[C@H](CC(C)C)NC(=O)[C@H](CCCCN)NC(=O)[C@H](CCCCN)NC(=O)[C@H](CC(C)C)NC(=O)[C@H](CC(C)C)NC(=O)[C@@H]1CCCN1C(=O)[C@H](CCCCN)NC(=O)[C@H](CCCCN)NC(=O)[C@H](CC(C)C)NC(=O)[C@H](CC(C)C)NC(=O)[C@H](CCCCN)NC(=O)[C@H](CCCCN)NC(=O)[C@H](Cc1c[nH]c2ccccc12)NC(=O)[C@@H](N)CCCCN)C(=O)N[C@@H](CCCCN)C(N)=O [P5-CT1] (H-KWKKLLKKPLLKKLLK-NH2) | 1.56 (≈ 3.13 µg/mL) | 3.13 (≈ 6.27 µg/mL) | 1.56 (≈ 3.13 µg/mL) | 0.78 (≈ 1.56 µg/mL) | 1.56 (≈ 3.13 µg/mL) | – | – | – | – | – |
| CC(C)C[C@H](NC(=O)[C@H](CCCCN)NC(=O)[C@H](CCCCN)NC(=O)[C@H](CC(C)C)NC(=O)[C@H](CC(C)C)NC(=O)[C@H](CCCCN)NC(=O)[C@H](CCCCN)NC(=O)[C@H](CC(C)C)NC(=O)[C@H](CC(C)C)NC(=O)[C@@H]1CCCN1C(=O)[C@H](CCCCN)NC(=O)[C@H](CCCCN)NC(=O)[C@H](CC(C)C)NC(=O)[C@H](CC(C)C)NC(=O)[C@H](CCCCN)NC(=O)[C@@H](N)CCCCN)C(N)=O [P5-NT1] (H-KKLLKKPLLKKLLKKL-NH2) | 1.56 (≈ 3.01 µg/mL) | 3.13 (≈ 6.05 µg/mL) | 1.56 (≈ 3.01 µg/mL) | 0.78 (≈ 1.51 µg/mL) | 1.56 (≈ 3.01 µg/mL) | – | – | – | – | – |
| CC(C)C[C@H](NC(=O)[C@H](CCCCN)NC(=O)[C@H](CCCCN)NC(=O)[C@H](CC(C)C)NC(=O)[C@H](CC(C)C)NC(=O)[C@H](CCCCN)NC(=O)[C@H](CCCCN)NC(=O)[C@H](CC(C)C)NC(=O)[C@H](CC(C)C)NC(=O)[C@@H]1CCCN1C(=O)[C@H](CCCCN)NC(=O)[C@H](CCCCN)NC(=O)[C@H](CC(C)C)NC(=O)[C@@H](N)CC(C)C)C(N)=O [P5-NT2] (H-LLKKPLLKKLLKKL-NH2) | 1.56 (≈ 2.61 µg/mL) | 12.5 (≈ 20.9 µg/mL) | 1.56 (≈ 2.61 µg/mL) | – | 3.13 (≈ 5.24 µg/mL) | – | – | – | – | – |
| CC(C)C[C@H](NC(=O)[C@H](CC(C)C)NC(=O)[C@@H]1CCCN1C(=O)[C@H](CCCCN)NC(=O)[C@H](CCCCN)NC(=O)[C@H](CC(C)C)NC(=O)[C@H](CC(C)C)NC(=O)[C@H](CCCCN)NC(=O)[C@H](CCCCN)NC(=O)[C@H](Cc1c[nH]c2ccccc12)NC(=O)[C@@H](N)CCCCN)C(=O)N[C@@H](CCCCN)C(N)=O [P5-CT3] (H-KWKKLLKKPLLK-NH2) | 6.25 (≈ 9.51 µg/mL) | > 25 | 3.13 (≈ 4.76 µg/mL) | – | > 25 | > 25 | – | – | – | – |
| CC[C@H](C)[C@H](NC(=O)CN)C(=O)NCC(=O)N[C@@H](C)C(=O)N[C@H](C(=O)N[C@@H](CC(C)C)C(=O)N[C@@H](CCCCN)C(=O)N[C@H](C(=O)N[C@@H](CC(C)C)C(=O)N[C@H](C(=O)N[C@H](C(=O)NCC(=O)N[C@@H](CC(C)C)C(=O)N1CCC[C@H]1C(=O)N[C@@H](C)C(=O)N[C@@H](CC(C)C)C(=O)N[C@H](C(=O)N[C@@H](CO)C(=O)N[C@@H](Cc1c[nH]c2ccccc12)C(=O)N[C@H](C(=O)N[C@@H](CCCCN)C(=O)N[C@@H](CCCNC(=N)N)C(=O)N[C@@H](CCCCN)C(=O)N[C@@H](CCCNC(=N)N)C(=O)N[C@@H](CCC(N)=O)C(=O)N[C@@H](CCC(N)=O)C(N)=O)[C@@H](C)CC)[C@@H](C)CC)[C@@H](C)O)[C@@H](C)O)C(C)C)C(C)C [Melittin, reference compound] | – | – | – | – | – | – | highly toxic | 0.78 (≈ 2.22 µg/mL) | 1.56 (≈ 4.44 µg/mL) | – |
| CC(C)C[C@H](NC(=O)[C@H](CCCCN)NC(=O)[C@H](CCCCN)NC(=O)[C@H](CC(C)C)NC(=O)[C@H](CC(C)C)NC(=O)[C@H](CCCCN)NC(=O)[C@H](CCCCN)NC(=O)[C@H](CC(C)C)NC(=O)[C@H](CC(C)C)NC(=O)[C@@H]1CCCN1C(=O)[C@H](CCCCN)NC(=O)[C@H](CCCCN)NC(=O)[C@H](CC(C)C)NC(=O)[C@H](CC(C)C)NC(=O)[C@H](CCCCN)NC(=O)[C@H](CCCCN)NC(=O)[C@H](Cc1c[nH]c2ccccc12)NC(=O)[C@@H](N)CCCCN)C(N)=O [P5] (H-KWKKLLKKPLLKKLLKKL-NH2) | 1.56 (≈ 3.5 µg/mL) | 1.56 (≈ 3.5 µg/mL) | 1.56 (≈ 3.5 µg/mL) | 1.56 (≈ 3.5 µg/mL) | 3.13 (≈ 7.03 µg/mL) | – | – | – | – | approximately 14% |
| CC(C)C[C@H](NC(=O)[C@H](CCCCN)NC(=O)[C@H](CCCCN)NC(=O)[C@H](CC(C)C)NC(=O)[C@H](CC(C)C)NC(=O)[C@H](CCCCN)NC(=O)[C@H](CCCCN)NC(=O)[C@H](CC(C)C)NC(=O)[C@H](CC(C)C)NC(=O)[C@@H]1CCCN1C(=O)[C@H](CCCCN)NC(=O)[C@@H](N)CCCCN)C(N)=O [P5-NT3] (H-KKPLLKKLLKKL-NH2) | 1.56 (≈ 2.26 µg/mL) | 25 (≈ 36.2 µg/mL) | 1.56 (≈ 2.26 µg/mL) | 0.78 (≈ 1.13 µg/mL) | 6.25 (≈ 9.06 µg/mL) | – | – | – | – | – |
| CC(C)C[C@H](NC(=O)[C@H](CCCCN)NC(=O)[C@H](CCCCN)NC(=O)[C@H](CC(C)C)NC(=O)[C@H](CC(C)C)NC(=O)[C@@H]1CCCN1C(=O)[C@H](CCCCN)NC(=O)[C@H](CCCCN)NC(=O)[C@H](CC(C)C)NC(=O)[C@H](CC(C)C)NC(=O)[C@H](CCCCN)NC(=O)[C@H](CCCCN)NC(=O)[C@H](Cc1c[nH]c2ccccc12)NC(=O)[C@@H](N)CCCCN)C(N)=O [P5-CT2] (H-KWKKLLKKPLLKKL-NH2) | 3.13 (≈ 5.52 µg/mL) | 12.5 (≈ 22 µg/mL) | 1.56 (≈ 2.75 µg/mL) | – | 6.25 (≈ 11 µg/mL) | – | – | – | – | – |
